From patent US11261201B2 (priority 2018, dated 2022)
Values after ≈ are worked out from the molar mass of the structure shown. Structures can show the parent of a compound that is named as a salt. Where two headings read alike, the source gives them in different places.

Key:
H37RvMA = assay: Tuberculosis Alamar Blue/Resazurin assay (MIC); assay type: cell-based; settings: read-out: WT H37Rv MTB Activity
E. coli = assay: Gram negative MIC protocol (OD600, LB, 24 h); settings: for MIC: Escherichia coli; for MIC E. coli delta-TolC LB Media / MIC WT E. coli LB Media: OD600
Protocol: (§1) Overnight bacterial cultures were grown in LB with no added antibiotics at 37° C. with shaking. A 1:1000 dilution of these cultures into LB was exposed to concentration gradients of compounds in 96-well plates (100 μL per well assay volume). Resulting plates were incubated at 37° C. for 24 h without shaking, and OD600 was measured at the end of the incubation. MICs were determined as the lowest concentrations at which OD600 remained at baseline.

A. baumannii = assay: Gram negative MIC protocol (OD600, LB, 24 h); settings: for MIC: Acinetobacter baumannii; for MIC A. baumannii LB Media: OD600
Protocol: as §1

[1] = Mycobacterium tuberculosis, H37RV
[2] = read-out: MIC E. coli delta-TolC LB Media, E. coli delta-TolC strain, LB media, 24 h, OD600
[3] = read-out: MIC WT E. coli LB Media, wild-type E. coli, LB media, 24 h, OD600
[4] = read-out: MIC A. baumannii LB Media, A. baumannii, LB media, 24 h, OD600
[5] = Mycobacterium tuberculosis, H37RV, WT H37Rv MTB
[6] = read-out: MIC E. coli delta-TolC LB Media, E. coli delta-TolC, LB media, OD600
[7] = read-out: MIC WT E. coli LB Media, WT E. coli, LB media, OD600
[8] = read-out: MIC A. baumannii LB Media

SMILES | MIC (H37RvMA; [1]) | MIC (A. baumannii; [4]) | MIC (H37RvMA; [5]) | MIC (E. coli; [6]) | MIC (E. coli; [7]) | further results
Fc1ccc(C2CC2NCc2ccccc2)cc1F (stereo in doubt) [B211, (1S,2R)-N-benzyl-2-(3,4-difluorophenyl)cyclopropanamine hydrochloride] | > 150 µM | 300 µM |  |  |  | MIC (E. coli; [2]): 300 µM; MIC (E. coli; [3]): > 300 µM
CC(C)CCNCc1ccccc1 [B2] |  | > 150 µM | > 150 µM | > 150 µM | > 150 µM | 
C1=C(CCNCc2ccncc2)CCCC1 [B3] |  | > 150 µM | > 150 µM | > 150 µM | > 150 µM | 
C1=C(CCNCc2cccnc2)CCCC1 [B4] | > 150 µM | > 150 µM |  | > 150 µM | > 150 µM | 
CC(CNCc1ccccc1)C1CCCC1 (centres unmarked) [B5] |  | > 150 µM | > 150 µM | > 150 µM | > 150 µM | 
CCCCCCNCc1ccccc1 [B6] |  | > 150 µM | > 150 µM | > 150 µM | > 150 µM | 
c1ccc(CNC2CCCCC2)cc1 [B7] |  | > 150 µM | > 150 µM | > 150 µM | > 150 µM | 
CC(Cc1ccccc1)NCc1ccccc1 (centres unmarked) [B8] | > 150 µM |  |  | > 150 µM | > 150 µM | MIC (A. baumannii; [8]): > 150 µM
c1ccc(CNCC2CCCCC2)cc1 [B9] |  | > 150 µM | > 150 µM | > 150 µM | > 150 µM | 
Cc1ccc(CNCCC2=CCCCC2)cc1 [B10, 2-(cyclohex-1-en-1-yl)-N-(4-methylbenzyl)ethan-1-amine] |  | > 150 µM | > 150 µM | > 150 µM | > 150 µM | 
Cc1cccc(CNCCC2=CCCCC2)c1 [B11, 2-(cyclohex-1-en-1-yl)-N-(3-methylbenzyl)ethan-1-amine] |  | > 150 µM | > 150 µM | > 150 µM | > 150 µM | 
COc1ccc(CNCCC2=CCCCC2)cc1 [B12] |  | > 150 µM | > 150 µM | > 150 µM | > 150 µM | 
Cc1ccccc1CNCCC1=CCCCC1 [B13, 2-(cyclohex-1-en-1-yl)-N-(2-methylbenzyl)ethan-1-amine] |  | 150 µM (≈ 34.4 µg/mL) | > 150 µM | 55 µM (≈ 12.6 µg/mL) | 90 µM (≈ 20.6 µg/mL) | 
Fc1ccc(CNCCC2=CCCCC2)cc1 [B14] |  | > 150 µM | > 150 µM | > 150 µM | > 150 µM | 
C1=C(CCNCc2ccncc2)CCCC1 [B15] |  |  |  |  |  | MIC (H37RvMA; WT H37Rv MTB): >150 µM; MIC E. coli delta-TolC LB Media (E. coli): >150 µM; MIC WT E. coli LB Media (E. coli): >150 µM; MIC A. baumannii LB Media (A. baumannii): >150 µM
CCCC(C)NCc1ccccc1 (centres unmarked) [B16] |  | > 150 µM | > 150 µM | > 150 µM | > 150 µM | 
Cl.c1ccc(CNCC2CCCCC2)cc1 [B17] |  |  |  |  |  | MIC (H37RvMA; WT H37Rv MTB): >150 µM; MIC E. coli delta-TolC LB Media (E. coli): >150 µM; MIC WT E. coli LB Media (E. coli): >150 µM; MIC A. baumannii LB Media (A. baumannii): >150 µM
c1ccc(CNCC2(c3ccc4c(c3)OCO4)CC2)cc1 [B18] | > 150 µM | > 150 µM |  | > 150 µM | > 150 µM | 
OC(CNCc1ccccc1)c1cccc2ccccc12 (centres unmarked) [B19] |  |  |  |  |  | MIC (H37RvMA; WT H37Rv MTB): 150 µM (≈ 41.6 µg/mL); MIC E. coli delta-TolC LB Media (E. coli): >150 µM; MIC WT E. coli LB Media (E. coli): >150 µM; MIC A. baumannii LB Media (A. baumannii): >150 µM
CC(CC1CCCO1)NCc1ccccc1 (centres unmarked) [B20] |  | > 150 µM | > 150 µM | > 150 µM | > 150 µM | 
Fc1cc(CCNCc2ccccc2)c2c(c1)COCO2 [B21] |  | > 150 µM | > 150 µM | > 150 µM | > 150 µM | 

SMILES | MIC (H37RvMA; [1]) | MIC (A. baumannii; [4]) | MIC (H37RvMA; [5]) | MIC (E. coli; [6]) | MIC (E. coli; [7]) | further results
c1ccc(CNCC2Cc3ccccc32)cc1 (centres unmarked) [B22] |  | > 150 µM | > 150 µM | > 150 µM | > 150 µM | 
c1ccc(CNCC2CCOc3ccccc32)cc1 (centres unmarked) [B23] |  | > 150 µM | > 150 µM | > 150 µM | > 150 µM | 
c1ccc(CNCCc2ccc3c(c2)CCO3)cc1 [B24] | > 150 µM |  |  | > 150 µM | > 150 µM | MIC (A. baumannii; [8]): > 150 µM
c1ccc(CNCCC2CCOCC2)cc1 [B25] |  | > 150 µM | > 150 µM | > 150 µM | > 150 µM | 
Cc1noc(C)c1CC(C)NCc1ccccc1 (centres unmarked) [B26] | > 150 µM | > 150 µM |  | > 150 µM | > 150 µM | 
C1=C(CCNCc2ccccc2)c2ccccc2C1 [B27] |  | > 150 µM | 91 µM (≈ 22.7 µg/mL) | > 150 µM | > 150 µM | 
COc1ccc(C(C)C(C)NCc2ccccc2)cc1 (centres unmarked) [B28] | > 150 µM | > 150 µM |  | > 150 µM | > 150 µM | 
CC(CC1CCOCC1)NCc1ccccc1 (centres unmarked) [B29] |  | > 150 µM | > 150 µM | > 150 µM | > 150 µM | 
c1ccc(CNCCC2CCC2)cc1 [B30] |  | > 150 µM | > 150 µM | > 150 µM | > 150 µM | 
CC(CC1CCOC1)NCc1ccccc1 (centres unmarked) [B31] |  | > 150 µM | > 150 µM | > 150 µM | > 150 µM | 
c1ccc(CNC2(C3CC3)CC2)cc1 [B32] |  | > 150 µM | > 150 µM | > 150 µM | > 150 µM | 
CC(CC1CCC1)NCc1ccccc1 (centres unmarked) [B33] | > 150 µM |  |  | > 150 µM | > 150 µM | MIC (A. baumannii; [8]): > 150 µM
CC(CC1CC1)NCc1ccccc1 (centres unmarked) [B34] |  | > 150 µM | > 150 µM | > 150 µM | > 150 µM | 
CC(NCc1ccccc1)C1CCCC1 (centres unmarked) [B35] |  | > 150 µM | > 150 µM | > 150 µM | > 150 µM | 
CC(NCCC1=CCCCC1)c1ccccc1 (centres unmarked) [B36] |  | > 150 µM | > 150 µM | > 150 µM | > 150 µM | 
OC1(CNCc2ccccc2)C2C3CC4C5C3CC2C5C41 (centres unmarked) [B37] |  | > 150 µM | 150 µM (≈ 42.2 µg/mL) | > 150 µM | > 150 µM | 
CC(CC1CCCC1)NCc1ccccc1 (centres unmarked) [B38] | > 150 µM |  |  | 90 µM (≈ 19.6 µg/mL) | 91 µM (≈ 19.8 µg/mL) | MIC (A. baumannii; [8]): 150 µM (≈ 32.6 µg/mL)
C1=C(CCNCc2ccccc2)CCC1 [B39] |  | > 150 µM | > 150 µM | > 150 µM | > 150 µM | 
c1ccc(CNCCC2CCOC2)cc1 (centres unmarked) [B40] |  | > 150 µM | > 150 µM | > 150 µM | > 150 µM | 
CC(Cc1cnn(C)c1)NCc1ccccc1 (centres unmarked) [B41] | > 150 µM | > 150 µM |  | > 150 µM | > 150 µM | 
c1ccc(CNCCc2cccc3cccnc23)cc1 [B42] |  | > 150 µM | > 150 µM | > 150 µM | > 150 µM | 

SMILES | MIC (H37RvMA; [1]) | MIC (A. baumannii; [4]) | MIC (H37RvMA; [5]) | MIC (E. coli; [6]) | MIC (E. coli; [7]) | further results
c1ccc(CNCC2CC3CCC2C3)cc1 (centres unmarked) [B43] |  | > 150 µM | > 150 µM | > 150 µM | > 150 µM | 
COc1ccc(C(C)CNCc2ccccc2)cc1OC (centres unmarked) [B44] | > 150 µM | > 150 µM |  | > 150 µM | > 150 µM | 
c1ccc(CNCC2C3CCc4ccccc4C32)cc1 (centres unmarked) [B45] |  | > 150 µM | 91 µM (≈ 24 µg/mL) | > 150 µM | > 150 µM | 
c1ccc(CNCCC2COc3ccccc3O2)cc1 (centres unmarked) [B46] |  | > 150 µM | > 150 µM | > 150 µM | > 150 µM | 
CC(Cc1ccn(C(C)C)n1)NCc1ccccc1 (centres unmarked) [B47] | > 150 µM | > 150 µM |  | > 150 µM | > 150 µM | 
C1=Nc2c(cccc2CCNCc2ccccc2)C1 [B48] | 150 µM (≈ 37.6 µg/mL) |  |  | > 150 µM | > 150 µM | MIC (A. baumannii; [8]): 150 µM (≈ 37.6 µg/mL)
c1ccc(CNC2(Cc3ccccc3)CC2)cc1 [B49] |  | > 150 µM | > 150 µM | > 150 µM | > 150 µM | 
COc1ccc(CC(C)(C)NCc2ccccc2)cc1 [B50] | > 150 µM |  |  | > 150 µM | > 150 µM | MIC (A. baumannii; [8]): > 150 µM
CC(C)=CCCNCc1ccccc1 [B51] |  | > 150 µM | > 150 µM | > 150 µM | > 150 µM | 
COC1(CC(C)NCc2ccccc2)CCC1 (centres unmarked) [B52] |  | > 150 µM | > 150 µM | > 150 µM | > 150 µM | 
C[C@H](NCc1ccccc1)[C@H](O)c1ccc2c(c1)OCO2 [B53] | > 150 µM | > 150 µM |  | > 150 µM | > 150 µM | 
COc1ccc(C(C)C(C)NCc2ccccc2)cc1OC (centres unmarked) [B54] | > 150 µM | > 150 µM |  | > 150 µM | > 150 µM | 
Clc1cc(CCNCc2ccccc2)cc2c1OCCO2 [B55] | 150 µM (≈ 45.6 µg/mL) |  |  | > 150 µM | > 150 µM | MIC (A. baumannii; [8]): > 150 µM
c1ccc(CNCCc2ccc3[nH]ccc3c2)cc1 [B56] | > 150 µM |  |  | > 150 µM | > 150 µM | MIC (A. baumannii; [8]): > 150 µM
C1=Nc2cccc(CCNCc3ccccc3)c2C1 [B57] | > 150 µM |  |  | > 150 µM | > 150 µM | MIC (A. baumannii; [8]): > 150 µM
c1ccc(CNCCc2ccc3cn[nH]c3c2)cc1 [B58] |  | > 150 µM | > 150 µM | > 150 µM | > 150 µM | 
c1ccc(CNCC2C3CC4CC(C3)CC2C4)cc1 (centres unmarked) [B59] |  | > 150 µM | 33 µM (≈ 8.43 µg/mL) | > 150 µM | > 150 µM | 
c1ccc(CNCCC2CCSCC2)cc1 [B332] |  | > 150 µM |  |  |  | MIC (E. coli; [2]): > 150 µM; MIC (E. coli; [3]): > 150 µM
O=C1Cc2ccccc2CN1CCC1CCCCC1 [B379] |  | > 150 µM |  |  |  | MIC (E. coli; [2]): 150 µM (≈ 38.6 µg/mL); MIC (E. coli; [3]): > 150 µM
